Data from ChEMBL document CHEMBL5678818, “Discovery of potent SOS1 inhibitors that block RAS activation via disruption of the RAS-SOS1 interaction” (Proc Natl Acad Sci U S A, 2019).

Experiments:
[1] = biological target: T1, Mitogen-activated protein kinase 15 (Homo sapiens) (UniProt Q8TD08); test: Inhibition of ERK8 (unknown origin) assessed as residual activity at 1000 nM by KINOMEscan analysis relative to control
T1 sequence (whole entry): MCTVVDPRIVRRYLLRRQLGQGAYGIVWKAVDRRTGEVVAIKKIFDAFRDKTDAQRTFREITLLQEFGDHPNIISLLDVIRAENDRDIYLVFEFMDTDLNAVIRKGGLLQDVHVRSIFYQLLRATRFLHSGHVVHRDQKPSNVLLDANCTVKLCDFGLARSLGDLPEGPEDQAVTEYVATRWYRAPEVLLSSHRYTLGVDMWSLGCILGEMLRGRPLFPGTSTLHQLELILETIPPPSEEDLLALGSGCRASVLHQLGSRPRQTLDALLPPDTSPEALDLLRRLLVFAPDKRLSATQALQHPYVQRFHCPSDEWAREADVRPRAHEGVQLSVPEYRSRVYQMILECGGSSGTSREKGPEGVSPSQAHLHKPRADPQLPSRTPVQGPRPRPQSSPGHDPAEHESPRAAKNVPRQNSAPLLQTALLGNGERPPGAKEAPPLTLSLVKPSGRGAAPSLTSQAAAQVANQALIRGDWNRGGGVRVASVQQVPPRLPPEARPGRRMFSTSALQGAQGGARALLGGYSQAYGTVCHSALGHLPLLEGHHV

[2] = biological target: Leukocyte tyrosine kinase receptor (Homo sapiens) (UniProt P29376); test: Inhibition of LTK (unknown origin) assessed as residual activity at 1000 nM by KINOMEscan analysis relative to control
Chain of Leukocyte tyrosine kinase receptor (Homo sapiens) (P29376 whole entry): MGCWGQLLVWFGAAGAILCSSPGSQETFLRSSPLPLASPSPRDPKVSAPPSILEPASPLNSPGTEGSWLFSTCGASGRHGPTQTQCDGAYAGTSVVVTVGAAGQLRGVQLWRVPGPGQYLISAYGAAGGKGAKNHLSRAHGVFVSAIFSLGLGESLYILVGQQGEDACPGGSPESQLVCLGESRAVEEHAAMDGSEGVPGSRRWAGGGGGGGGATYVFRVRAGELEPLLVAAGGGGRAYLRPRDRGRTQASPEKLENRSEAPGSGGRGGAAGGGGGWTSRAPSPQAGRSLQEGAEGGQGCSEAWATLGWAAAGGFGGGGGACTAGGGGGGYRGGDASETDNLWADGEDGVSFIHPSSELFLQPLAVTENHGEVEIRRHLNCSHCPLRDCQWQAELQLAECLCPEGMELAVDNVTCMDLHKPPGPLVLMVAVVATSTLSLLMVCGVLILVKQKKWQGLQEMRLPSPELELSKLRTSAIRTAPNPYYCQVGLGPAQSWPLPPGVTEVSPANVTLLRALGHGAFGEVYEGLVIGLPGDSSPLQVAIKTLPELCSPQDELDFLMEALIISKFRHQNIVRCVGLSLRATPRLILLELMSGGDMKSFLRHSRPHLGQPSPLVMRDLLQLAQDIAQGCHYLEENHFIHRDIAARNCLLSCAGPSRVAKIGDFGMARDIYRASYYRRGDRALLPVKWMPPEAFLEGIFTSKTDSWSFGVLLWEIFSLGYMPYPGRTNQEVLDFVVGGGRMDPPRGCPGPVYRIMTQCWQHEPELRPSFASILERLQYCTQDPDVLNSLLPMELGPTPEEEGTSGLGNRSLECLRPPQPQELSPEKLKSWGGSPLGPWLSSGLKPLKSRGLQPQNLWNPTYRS

[3] = biological target: Tyrosine-protein kinase Lck (Homo sapiens) (UniProt P06239); test: Inhibition of LCK (unknown origin) assessed as residual activity at 1000 nM by KINOMEscan analysis relative to control
Chain of Tyrosine-protein kinase Lck (Homo sapiens) (P06239 2-509 limits assumed): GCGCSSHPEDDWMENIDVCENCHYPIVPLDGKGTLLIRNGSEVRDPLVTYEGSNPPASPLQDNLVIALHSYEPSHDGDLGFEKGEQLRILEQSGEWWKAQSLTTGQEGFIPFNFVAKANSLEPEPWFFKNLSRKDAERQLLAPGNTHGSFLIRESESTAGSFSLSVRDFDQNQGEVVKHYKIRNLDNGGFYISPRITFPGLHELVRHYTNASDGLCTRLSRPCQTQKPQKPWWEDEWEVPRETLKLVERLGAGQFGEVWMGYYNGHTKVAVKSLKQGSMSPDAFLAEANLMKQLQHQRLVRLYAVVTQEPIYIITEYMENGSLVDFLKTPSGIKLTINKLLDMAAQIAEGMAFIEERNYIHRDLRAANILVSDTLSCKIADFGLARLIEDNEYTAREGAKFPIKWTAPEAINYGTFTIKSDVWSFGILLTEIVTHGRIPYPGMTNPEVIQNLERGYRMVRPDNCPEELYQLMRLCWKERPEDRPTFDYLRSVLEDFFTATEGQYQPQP

[4] = biological target: T2, Serine/threonine-protein kinase LATS1 (Homo sapiens) (UniProt O95835); test: Inhibition of LATS1 (unknown origin) assessed as residual activity at 1000 nM by KINOMEscan analysis relative to control
T2 sequence (whole entry): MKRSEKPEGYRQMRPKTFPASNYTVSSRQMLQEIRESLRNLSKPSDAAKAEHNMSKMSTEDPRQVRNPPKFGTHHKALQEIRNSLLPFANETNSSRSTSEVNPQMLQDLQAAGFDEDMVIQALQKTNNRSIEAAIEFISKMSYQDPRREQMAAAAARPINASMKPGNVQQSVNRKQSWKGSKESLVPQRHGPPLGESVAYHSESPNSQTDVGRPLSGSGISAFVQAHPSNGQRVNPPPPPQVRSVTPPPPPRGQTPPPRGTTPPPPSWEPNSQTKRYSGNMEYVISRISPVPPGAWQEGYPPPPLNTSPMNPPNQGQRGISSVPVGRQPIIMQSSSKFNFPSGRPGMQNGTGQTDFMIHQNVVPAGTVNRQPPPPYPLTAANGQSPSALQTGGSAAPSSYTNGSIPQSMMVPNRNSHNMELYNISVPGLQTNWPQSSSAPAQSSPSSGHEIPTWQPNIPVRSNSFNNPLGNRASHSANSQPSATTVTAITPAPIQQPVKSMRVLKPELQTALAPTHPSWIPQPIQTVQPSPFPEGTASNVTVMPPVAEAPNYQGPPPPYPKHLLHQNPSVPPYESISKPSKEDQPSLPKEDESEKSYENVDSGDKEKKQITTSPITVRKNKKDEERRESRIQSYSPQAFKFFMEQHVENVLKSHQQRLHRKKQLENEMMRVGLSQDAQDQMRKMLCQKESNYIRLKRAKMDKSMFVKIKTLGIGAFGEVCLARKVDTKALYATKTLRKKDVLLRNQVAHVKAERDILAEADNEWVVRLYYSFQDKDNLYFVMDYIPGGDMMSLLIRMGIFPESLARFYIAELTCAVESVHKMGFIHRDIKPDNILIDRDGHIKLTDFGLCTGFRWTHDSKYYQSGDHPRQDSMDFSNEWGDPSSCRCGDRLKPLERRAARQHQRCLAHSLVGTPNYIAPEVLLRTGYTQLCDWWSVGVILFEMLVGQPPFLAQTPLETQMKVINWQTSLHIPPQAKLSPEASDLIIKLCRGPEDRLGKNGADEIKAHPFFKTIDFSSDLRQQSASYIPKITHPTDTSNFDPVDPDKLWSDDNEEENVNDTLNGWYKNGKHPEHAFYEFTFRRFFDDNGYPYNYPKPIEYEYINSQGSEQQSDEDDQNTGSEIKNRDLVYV

[5] = biological target: Dual specificity mitogen-activated protein kinase kinase 1 (Homo sapiens) (UniProt Q02750); test: Inhibition of MEK1 (unknown origin) assessed as residual activity at 1000 nM by KINOMEscan analysis relative to control
Chain of Dual specificity mitogen-activated protein kinase kinase 1 (Homo sapiens) (Q02750 whole entry): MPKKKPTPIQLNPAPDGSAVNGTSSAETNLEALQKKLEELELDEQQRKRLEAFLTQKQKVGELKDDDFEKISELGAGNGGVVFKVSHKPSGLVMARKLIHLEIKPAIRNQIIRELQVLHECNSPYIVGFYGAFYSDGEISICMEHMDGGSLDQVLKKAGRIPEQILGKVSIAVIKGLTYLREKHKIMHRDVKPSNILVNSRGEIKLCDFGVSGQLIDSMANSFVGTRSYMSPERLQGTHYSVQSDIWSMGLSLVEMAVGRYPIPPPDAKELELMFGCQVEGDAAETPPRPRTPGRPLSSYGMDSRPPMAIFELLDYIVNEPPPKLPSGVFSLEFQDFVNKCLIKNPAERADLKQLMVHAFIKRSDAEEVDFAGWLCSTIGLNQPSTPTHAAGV

[6] = biological target: T3, Myotonin-protein kinase (Homo sapiens) (UniProt Q09013); test: Inhibition of DMPK (unknown origin) assessed as residual activity at 1000 nM by KINOMEscan analysis relative to control
T3 sequence (whole entry): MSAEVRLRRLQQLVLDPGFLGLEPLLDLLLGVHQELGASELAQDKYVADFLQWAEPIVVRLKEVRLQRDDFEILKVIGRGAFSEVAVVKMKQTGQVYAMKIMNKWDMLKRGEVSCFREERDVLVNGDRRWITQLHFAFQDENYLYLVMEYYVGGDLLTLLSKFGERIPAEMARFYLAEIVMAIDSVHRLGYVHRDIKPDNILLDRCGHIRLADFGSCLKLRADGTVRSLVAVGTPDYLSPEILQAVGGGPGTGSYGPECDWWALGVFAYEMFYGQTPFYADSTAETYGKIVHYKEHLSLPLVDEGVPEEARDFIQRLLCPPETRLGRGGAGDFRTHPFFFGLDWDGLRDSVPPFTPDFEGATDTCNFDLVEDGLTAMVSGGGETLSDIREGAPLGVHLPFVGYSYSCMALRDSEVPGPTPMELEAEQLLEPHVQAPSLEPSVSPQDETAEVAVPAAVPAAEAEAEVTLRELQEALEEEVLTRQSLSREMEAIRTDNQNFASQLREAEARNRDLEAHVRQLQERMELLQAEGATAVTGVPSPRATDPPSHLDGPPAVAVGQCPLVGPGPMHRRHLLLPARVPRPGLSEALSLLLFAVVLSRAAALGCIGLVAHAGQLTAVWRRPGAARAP

[7] = biological target: Tyrosine-protein kinase Srms (Homo sapiens) (UniProt Q9H3Y6); test: Inhibition of SRMS (unknown origin) assessed as residual activity at 1000 nM by KINOMEscan analysis relative to control
Chain of Tyrosine-protein kinase Srms (Homo sapiens) (Q9H3Y6 whole entry): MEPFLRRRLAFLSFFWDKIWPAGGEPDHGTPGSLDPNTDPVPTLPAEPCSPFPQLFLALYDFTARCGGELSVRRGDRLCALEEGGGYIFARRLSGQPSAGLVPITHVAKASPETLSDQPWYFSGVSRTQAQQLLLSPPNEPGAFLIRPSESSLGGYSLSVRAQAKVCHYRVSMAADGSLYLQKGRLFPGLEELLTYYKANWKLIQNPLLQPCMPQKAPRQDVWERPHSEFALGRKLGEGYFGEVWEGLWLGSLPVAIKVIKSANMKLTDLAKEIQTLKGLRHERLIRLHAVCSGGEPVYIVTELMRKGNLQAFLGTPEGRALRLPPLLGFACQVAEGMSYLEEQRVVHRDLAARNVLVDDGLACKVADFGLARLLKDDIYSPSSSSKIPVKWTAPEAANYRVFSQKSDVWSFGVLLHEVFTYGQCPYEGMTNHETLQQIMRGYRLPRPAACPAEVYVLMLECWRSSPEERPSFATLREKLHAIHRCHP

[8] = biological target: Tyrosine-protein kinase Yes (Homo sapiens) (UniProt P07947); test: Inhibition of YES (unknown origin) assessed as residual activity at 1000 nM by KINOMEscan analysis relative to control
Chain of Tyrosine-protein kinase Yes (Homo sapiens) (P07947 2-543 limits assumed): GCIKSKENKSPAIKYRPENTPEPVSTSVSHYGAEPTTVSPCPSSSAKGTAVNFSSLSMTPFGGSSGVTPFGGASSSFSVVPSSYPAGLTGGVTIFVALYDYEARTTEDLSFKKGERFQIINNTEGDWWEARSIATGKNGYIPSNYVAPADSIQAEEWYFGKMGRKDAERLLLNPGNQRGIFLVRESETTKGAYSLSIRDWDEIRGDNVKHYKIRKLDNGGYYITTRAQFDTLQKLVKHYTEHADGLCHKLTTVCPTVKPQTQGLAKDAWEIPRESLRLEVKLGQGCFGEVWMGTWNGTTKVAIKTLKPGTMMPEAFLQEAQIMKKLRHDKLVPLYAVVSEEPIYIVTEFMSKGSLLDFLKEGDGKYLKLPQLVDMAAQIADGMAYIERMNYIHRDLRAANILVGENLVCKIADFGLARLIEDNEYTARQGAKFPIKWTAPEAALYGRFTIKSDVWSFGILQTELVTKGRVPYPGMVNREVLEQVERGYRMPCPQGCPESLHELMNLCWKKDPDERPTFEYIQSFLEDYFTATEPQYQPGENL

[9] = biological target: Protein kinase C theta type (Homo sapiens) (UniProt Q04759); test: Inhibition of PRKCQ (unknown origin) assessed as residual activity at 1000 nM by KINOMEscan analysis relative to control
Chain of Protein kinase C theta type (Homo sapiens) (Q04759 whole entry, looked up): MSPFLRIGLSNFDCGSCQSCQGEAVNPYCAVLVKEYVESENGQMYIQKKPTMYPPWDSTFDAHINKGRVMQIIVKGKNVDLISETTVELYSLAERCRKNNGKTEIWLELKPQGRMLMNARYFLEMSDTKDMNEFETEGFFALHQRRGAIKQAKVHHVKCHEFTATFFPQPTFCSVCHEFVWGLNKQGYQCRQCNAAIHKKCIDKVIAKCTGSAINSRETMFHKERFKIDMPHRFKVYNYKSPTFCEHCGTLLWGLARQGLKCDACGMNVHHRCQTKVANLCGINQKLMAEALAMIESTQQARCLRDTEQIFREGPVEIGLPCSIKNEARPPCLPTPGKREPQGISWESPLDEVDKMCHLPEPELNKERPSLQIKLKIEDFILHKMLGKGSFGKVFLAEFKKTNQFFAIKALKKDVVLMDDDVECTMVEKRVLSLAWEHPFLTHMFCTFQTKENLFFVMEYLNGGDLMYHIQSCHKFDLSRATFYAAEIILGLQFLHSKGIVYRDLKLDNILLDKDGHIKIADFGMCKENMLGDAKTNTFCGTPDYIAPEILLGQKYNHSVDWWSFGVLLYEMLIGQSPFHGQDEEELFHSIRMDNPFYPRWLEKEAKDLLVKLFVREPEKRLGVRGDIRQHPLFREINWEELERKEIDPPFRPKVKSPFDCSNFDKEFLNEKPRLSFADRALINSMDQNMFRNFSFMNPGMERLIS

[10] = biological target: Mitogen-activated protein kinase kinase kinase 1 (Homo sapiens) (UniProt Q13233); test: Inhibition of MAP3K1 (unknown origin) assessed as residual activity at 1000 nM by KINOMEscan analysis relative to control
Chain of Mitogen-activated protein kinase kinase kinase 1 (Homo sapiens) (Q13233 whole entry): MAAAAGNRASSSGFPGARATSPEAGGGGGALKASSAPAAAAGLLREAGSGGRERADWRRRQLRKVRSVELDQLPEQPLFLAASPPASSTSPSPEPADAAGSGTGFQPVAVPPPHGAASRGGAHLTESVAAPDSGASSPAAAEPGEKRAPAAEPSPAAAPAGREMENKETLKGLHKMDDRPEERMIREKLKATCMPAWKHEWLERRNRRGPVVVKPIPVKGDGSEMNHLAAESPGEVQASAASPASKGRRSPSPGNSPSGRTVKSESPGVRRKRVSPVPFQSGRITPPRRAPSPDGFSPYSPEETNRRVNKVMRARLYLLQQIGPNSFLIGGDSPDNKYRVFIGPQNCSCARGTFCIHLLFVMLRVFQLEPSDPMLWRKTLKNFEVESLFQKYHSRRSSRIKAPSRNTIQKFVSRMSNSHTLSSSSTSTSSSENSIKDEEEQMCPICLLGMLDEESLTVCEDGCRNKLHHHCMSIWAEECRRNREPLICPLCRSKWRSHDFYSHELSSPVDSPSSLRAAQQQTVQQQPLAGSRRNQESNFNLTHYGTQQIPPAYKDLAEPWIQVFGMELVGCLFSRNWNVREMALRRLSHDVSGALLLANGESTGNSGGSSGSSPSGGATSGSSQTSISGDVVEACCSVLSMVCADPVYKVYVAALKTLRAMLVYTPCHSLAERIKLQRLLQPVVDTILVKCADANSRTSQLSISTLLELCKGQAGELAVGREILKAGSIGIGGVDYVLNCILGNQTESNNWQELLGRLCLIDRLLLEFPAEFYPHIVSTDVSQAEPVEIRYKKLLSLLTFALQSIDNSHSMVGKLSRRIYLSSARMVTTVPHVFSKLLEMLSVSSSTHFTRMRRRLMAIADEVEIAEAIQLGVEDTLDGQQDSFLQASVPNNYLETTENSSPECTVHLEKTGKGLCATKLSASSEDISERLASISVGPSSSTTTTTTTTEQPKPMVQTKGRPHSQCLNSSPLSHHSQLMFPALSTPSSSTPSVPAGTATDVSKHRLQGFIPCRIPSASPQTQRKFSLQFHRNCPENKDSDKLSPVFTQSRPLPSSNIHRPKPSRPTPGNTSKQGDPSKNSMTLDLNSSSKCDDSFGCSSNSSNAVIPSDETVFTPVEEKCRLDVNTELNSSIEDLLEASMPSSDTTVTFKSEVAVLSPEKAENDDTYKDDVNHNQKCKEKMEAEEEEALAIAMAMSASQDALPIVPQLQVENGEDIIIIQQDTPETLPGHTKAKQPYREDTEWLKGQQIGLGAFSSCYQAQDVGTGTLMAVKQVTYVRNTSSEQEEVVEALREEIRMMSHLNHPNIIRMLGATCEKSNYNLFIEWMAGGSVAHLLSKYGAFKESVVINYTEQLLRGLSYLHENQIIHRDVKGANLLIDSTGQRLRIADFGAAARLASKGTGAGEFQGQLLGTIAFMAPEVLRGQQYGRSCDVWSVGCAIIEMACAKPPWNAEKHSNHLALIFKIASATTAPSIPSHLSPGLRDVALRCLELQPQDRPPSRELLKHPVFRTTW

Row | Compound | Activity [1] | Activity [2] | Activity [3] | Activity [4] | Activity [5] | Activity [6] | Activity [7] | Activity [8] | Activity [9] | Activity [10]
1 | COc1cc2nc(C)nc(N[C@H](C)c3cccc(-c4cn[nH]c4)c3)c2cc1OC | 60% | 100% | 56% | 98% | 85% | 87% | 87% | 67% | 84% | 77%
2 | COc1cc2ncnc(N[C@H](C)c3cccc4ccccc34)c2cc1OC | 100% | 97% | 70% | 100% | 96% | 100% | 83% | 100% | 100% | 100%
